Measured values published in US20080312283A1, “Use of Hydroxylamine Derivates for Inhibiting Vitrectomy-Induced Cataracts” (Othera Pharmaceuticals, Inc., priority 2005, published 2008).

Key:
[1] = test system: lens epithelial cells; conditions: Mitchell et al. 1991; Krishna et al. 1991; cited from earlier work
[2] = test system: cataract; conditions: Zigler et al., U.S. Pat. No. 6,001,853; cited from earlier work
[3] = Ocular tissue, urine and plasma levels of total radioactivity following a single intravitreal dose; format: in vivo, New Zealand White rabbits
Description: A randomized, single treatment study, in nine groups of three NZW rabbits per group, was conducted. Animals were assigned to study groups by a computerized randomization program designed to achieve similar body weights per group. Naïve animals received an intra-vitreous injection of the test article at a nominal dose of 2.0 mg*eq [^14C]Tempol-H (1,4-dihydroxy-2,2,6,6-tetramethylpiperidine(2,4,6-^14C3)). A dose of 0.1 mL, containing 2.18 μCi was administered into both eyes. At nine specified time points post dose (1, 30, 60 minutes, 2, 4, 8, 24, 48, and 120 hours), three animals per group were euthanized and terminal samples were collected. The following tissues were harvested from each eye of all animals: aqueous humor, cornea, iris/ciliary body complex, vitreous humor, lens, retina-choroid plexus and optic nerve. Blood was collected from the marginal ear vein of all rabbits into tubes containing K3EDTA; urine was cage-collected daily from three animals up to 120 hour post dosing. Total radioactivity was determined in all samples by liquid scintillation counting.

[4] = test system: retinal S-antigen-induced experimental autoimmune uveoretinitis (EAU); conditions: systemic injection, rat model (Zamir et al. 1999); cited from earlier work
[5] = New Zealand White, rabbit, in vivo, 8 h

| SMILES | protection of lens epithelial cells from oxidative damage [1] | anti-cataractogenic effect compared with the corresponding nitroxide [2] | concentration of radioactivity in the aqueous humor [3, 5] [μg eq/g] | concentration of radioactivity in the cornea [3, 5] [μg eq/g] | concentration of radioactivity in the iris/ciliary body [3, 5] [μg eq/g] | concentration of radioactivity in the lens [3, 5] [μg eq/g] | concentration of radioactivity in the optic nerve [3, 5] [μg eq/g] | concentration of radioactivity in the retina-choroid plexus [3, 5] [μg eq/g] | concentration of radioactivity in the vitreous humor [3, 5] [μg eq/g] | tissues with the highest concentrations of radioactivity ([3]; one minute post dosing, intravitreal) | levels of total radioactivity in sampled ocular tissues, blood and plasma ([3]; single intravitreal dose, all sampled ocular tissues, blood and plasma) | severity of experimental autoimmune uveoretinitis [4] |
| --- | --- | --- | --- | --- | --- | --- | --- | --- | --- | --- | --- | --- |
| CC1(C)CC(O)CC(C)(C)N1O [Tempol-H, 1,4-dihydroxy-2,2,6,6-tetramethylpiperidine] | afforded no such protection | better anti-cataractogenic composition than the corresponding nitroxide | ~30±8 | ~2±0.1 | ~6±0.5 | ~41±6 | ~4±0.5 | ~18±2 | ~25±3 | retina-choroid plexus, vitreous humor and iris-ciliary body complex | Quantifiable levels of total radioactivity were observed in all sampled ocular tissues, blood and plasma |  |
| CC1(C)CC(O)CC(C)(C)N1[O] [tempol, 4-hydroxy-2,2,6,6,-tetramethylpiperidine-1-N-oxyl] |  |  |  |  |  |  |  |  |  |  |  | reduced the severity |
